In US12091411B2, “IRAK degraders and uses thereof” (Kymera Therapeutics, Inc., priority 2022, dated 2024) one finds DC50 data, which are given here for 15 compounds.

The assay has as its target T1, IRAK4 (Homo sapiens, UniProt Q9NWZ3).
T1 construct: Degradation of IRAK4 in OCI-LY10 was quantitatively measured using Meso Scale Discovery technology; endogenous in cells; host or cells: OCI-LY10
T1 sequence (Q9NWZ3 1-460): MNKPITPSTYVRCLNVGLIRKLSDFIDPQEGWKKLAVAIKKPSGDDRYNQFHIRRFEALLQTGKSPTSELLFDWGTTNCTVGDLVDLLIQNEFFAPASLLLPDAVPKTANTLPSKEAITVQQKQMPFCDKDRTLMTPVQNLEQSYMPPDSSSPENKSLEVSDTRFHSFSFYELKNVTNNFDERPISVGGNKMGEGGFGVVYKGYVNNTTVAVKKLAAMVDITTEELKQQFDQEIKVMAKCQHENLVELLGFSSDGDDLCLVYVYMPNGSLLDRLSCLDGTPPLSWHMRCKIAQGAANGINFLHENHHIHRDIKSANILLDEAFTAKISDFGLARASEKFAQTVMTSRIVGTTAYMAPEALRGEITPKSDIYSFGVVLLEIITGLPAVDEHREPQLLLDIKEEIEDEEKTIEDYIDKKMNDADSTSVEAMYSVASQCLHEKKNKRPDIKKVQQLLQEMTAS
Briefly: IRAK4 MSD Degradation in OCI-LY10. The settings on record: OCI-LY10 cells, MSD. The class given is cell-based. Summed up: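 OCI-LY10 cells exposed to 8-point 1:3 compound series (top 1 to 10 μM) for 4 to 24 h at 37 °C, 5% CO2. Lysate IRAK4 quantified by MSD sandwich immunoassay. DC50 from three-parameter logistic fit, binned A (<0.01 μM) to D (>0.2 μM or not tested).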

Setting [1] is: 4 hrs incubation, read-out: IRAK4 degradation in OCI-LY10 at 4 hrs: DC50.
The mark [2] stands for this setting: 24 hrs incubation, read-out: IRAK4 degradation in OCI-LY10 at 24 hrs: DC50.

Read-outs that look alike come from different tables or passages of the source. Where only a bound is given, the exact number is not on record here.

By DC50 is commonly meant the midpoint of the concentration-degradation curve. Regarding `C[C@@H]1CN(c2ccn3ncc(C(=O)Nc4cn([C@H]5CC[C@H](CN(C)C6CCN(c7cccc8c7n(C)c(=O)n8C7CCC(=O)NC7=O)CC6(F)F)CC5)nc4C(F)F)c3n2)C[C@H](C)O1` (stereo partly drawn) [I-532], the DC50 is, setting by setting: under setting [1], more than 200 nM; under setting [2], more than 200 nM.

Take `C[C@H]1CN(c2ccn3ncc(C(=O)Nc4cn([C@H]5CC[C@H](CN(C)C6CCN(c7cccc8c7n(C)c(=O)n8C7CCC(=O)NC7=O)CC6(F)F)CC5)nc4C(F)F)c3n2)C[C@H](C)O1` (stereo partly drawn) [I-533]: the DC50 runs as follows: under setting [1], more than 200 nM; under setting [2], more than 200 nM.

With `CN(C[C@H]1CC[C@H](n2cc(NC(=O)c3cnn4ccc(N5CCO[C@@H](C(F)F)C5)nc34)c(C(F)F)n2)CC1)C1CCN(c2cccc3c2n(C)c(=O)n3C2CCC(=O)NC2=O)CC1(F)F` (stereo partly drawn) [I-535], the half-maximal degradation concentration (DC50) is, setting by setting: under setting [1], more than 200 nM; under setting [2], more than 200 nM.

Consider `CN(C[C@H]1CC[C@H](n2cc(NC(=O)c3cnn4ccc(N5CCO[C@H](C(F)F)C5)nc34)c(C(F)F)n2)CC1)C1CCN(c2cccc3c2n(C)c(=O)n3C2CCC(=O)NC2=O)CC1(F)F` (stereo partly drawn) [I-536], for which the DC50 reads like this: under setting [1], more than 200 nM; under setting [2], more than 200 nM.

As for `CN(C[C@H]1CC[C@H](n2cc(NC(=O)c3cnn4ccc(N5CCO[C@@H](C(F)(F)F)C5)nc34)c(C(F)F)n2)CC1)C1CCN(c2cccc3c2n(C)c(=O)n3C2CCC(=O)NC2=O)CC1(F)F` (stereo partly drawn) [I-537], the DC50 under setting [1] is more than 200 nM and the DC50 under setting [2] was more than 200 nM.

On to `CN(C[C@H]1CC[C@H](n2cc(NC(=O)c3cnn4ccc(N5CCO[C@H](C(F)(F)F)C5)nc34)c(C(F)F)n2)CC1)C1CCN(c2cccc3c2n(C)c(=O)n3C2CCC(=O)NC2=O)CC1(F)F` (stereo partly drawn) [I-538], for which the DC50 reads like this: under setting [1], more than 200 nM; under setting [2], more than 200 nM.

`CN(C[C@H]1CC[C@H](n2cc(NC(=O)c3cnn4ccc(N5CCOC6(CC6)C5)nc34)c(C(F)F)n2)CC1)C1CCN(c2cccc3c2n(C)c(=O)n3C2CCC(=O)NC2=O)CC1(F)F` (stereo partly drawn) [I-539]: the 50% degradation concentration (DC50) runs as follows: under setting [1], more than 200 nM; under setting [2], more than 200 nM.

Regarding `CN(C[C@H]1CC[C@H](n2cc(NC(=O)c3cnn4ccc(N5CCOC6(CCC6)C5)nc34)c(C(F)F)n2)CC1)C1CCN(c2cccc3c2n(C)c(=O)n3C2CCC(=O)NC2=O)CC1(F)F` (stereo partly drawn) [I-540], the half-maximal degradation concentration (DC50) under setting [1] is more than 200 nM and the DC50 under setting [2] is more than 200 nM.

Consider `CN(C[C@H]1CC[C@H](n2cc(NC(=O)c3cnn4ccc(N5CCSCC5)nc34)c(C(F)F)n2)CC1)C1CCN(c2cccc3c2n(C)c(=O)n3C2CCC(=O)NC2=O)CC1(F)F` (stereo partly drawn) [I-541], for which the DC50 is, setting by setting: under setting [1], more than 200 nM; under setting [2], more than 200 nM.

As to `CN(C[C@H]1CC[C@H](n2cc(NC(=O)c3cnn4ccc(N5CCS(=O)(=O)CC5)nc34)c(C(F)F)n2)CC1)C1CCN(c2cccc3c2n(C)c(=O)n3C2CCC(=O)NC2=O)CC1(F)F` (stereo partly drawn) [I-542], the half-maximal degradation concentration (DC50) runs as follows: under setting [1], more than 200 nM; under setting [2], more than 200 nM.

For `CN(C[C@H]1CC[C@H](n2cc(NC(=O)c3cnn4ccc(N5CCCCCC5)nc34)c(C(F)F)n2)CC1)C1CCN(c2cccc3c2n(C)c(=O)n3C2CCC(=O)NC2=O)CC1(F)F` (stereo partly drawn) [I-543], the half-maximal degradation concentration (DC50) under setting [1] was more than 200 nM and the DC50 under setting [2] was more than 200 nM.

For `CN(C[C@H]1CC[C@H](n2cc(NC(=O)c3cnn4ccc(N5CCCOCC5)nc34)c(C(F)F)n2)CC1)C1CCN(c2cccc3c2n(C)c(=O)n3C2CCC(=O)NC2=O)CC1(F)F` (stereo partly drawn) [I-544], the DC50 reads like this: under setting [1], more than 200 nM; under setting [2], 10 to 100 nM.

On to `Cn1c(=O)n(C2CCC(=O)NC2=O)c2cccc(C3CCN(C[C@H]4CC[C@H](n5cc6cc(NC(=O)c7cccc(C(F)(F)F)n7)c(C(F)F)cc6n5)CC4)CC3F)c21` (stereo partly drawn) [I-545], for which the DC50 under setting [1] was more than 200 nM and the half-maximal degradation concentration (DC50) under setting [2] is less than 10 nM.

As to `COc1ccc2c(c1C1CCN(C[C@H]3CC[C@H](n4cc5cc(NC(=O)c6cccc(C(F)(F)F)n6)ncc5n4)CC3)CC1F)n(C)c(=O)n2C1CCC(=O)NC1=O` (stereo partly drawn) [I-546], the DC50 is, setting by setting: under setting [1], more than 200 nM; under setting [2], more than 200 nM.

On to `COc1cc2nn([C@H]3CC[C@H](CN4CCC(c5cccc6c5n(C)c(=O)n6C5CCC(=O)NC5=O)C(F)C4)CC3)cc2cc1NC(=O)c1cccc(C(F)(F)F)n1` (stereo partly drawn) [I-547], for which the DC50 was more than 200 nM under setting [1] and less than 10 nM under setting [2].
